Experimental data as given in publication PMC8577999 (Slas Discovery, 2021).
Values joined by “and” are separate entries in the source; they are usually repeats but may differ in a detail not shown here. Identical values can stand only once. Counter-ions that a name gives are not always drawn. Square brackets hold non-standard residues; d marks the D form. Peptide text beside a SMILES is read from it. Nle = CCCC[C@H](N)C(=O)O

How the values were obtained:
[1] = tested on: SARS-CoV-2 (USA-WA1/2020 isolate); type: cell-based
[2] = tested on: MLV reporter luciferase virus pseudotyped with the SARS-CoV-2 Spike protein (SARS2-S)
[3] = tested on: SARS-CoV-2; type: cell-based
[4] = tested on: SARS2-S; assay: microbe, parasite or virus in culture; type: cell-based, SARS-CoV-2; conditions: Severe acute respiratory syndrome coronavirus 2, read-out: SARS2-S IC50
[5] = tested on: VSV-G; assay: microbe, parasite or virus in culture; type: cell-based; conditions: Vesicular stomatitis virus, read-out: VSV-G IC50
[6] = tested on: SARS1-S; assay: microbe, parasite or virus in culture; type: cell-based, SARS-CoV-1
[7] = tested on: SARS2-S WT; assay: microbe, parasite or virus in culture; type: cell-based, SARS-CoV-2; conditions: Severe acute respiratory syndrome coronavirus 2, read-out: WT IC50
[8] = tested on: main viral protease (MPRO); conditions: read-out: MPRO IC50; cited from earlier work

| SMILES | activity against wild type SARS-CoV-2 (CPE) [1] | higher potency as compared to the best ReFRAME hit, SR-806 (VBY-825) [2] [fold] | higher specificity as compared to the best ReFRAME hit, SR-806 (VBY-825) [2] | therapeutic index (TI=CC50/IC50) [2] | EC50 ([1]; read-out: EC50, SARS-CoV-2-induced CPE assay) | activity in plaque assays of wild type SARS-CoV-2 infection [3] | IC50 [4] [µM] | IC50 [5] [µM] | less potent against SARS1-S than against SARS2-S [6] [fold] | IC50 ([6]; Severe acute respiratory syndrome coronavirus, read-out: SARS1-S IC50) [µM] | IC50 [7] [µM] | IC50 [8] [µM] |
| --- | --- | --- | --- | --- | --- | --- | --- | --- | --- | --- | --- | --- |
| CN(C)C(=O)COC(=O)Cc1ccc(OC(=O)c2ccc(NC(=N)N)cc2)cc1 [Camostat mesylate, reference compound] | did not shown any activity |  |  |  |  |  |  |  |  |  |  |  |
| CCCC[C@@H](C=O)NC(=O)[C@H](CC(C)C)NC(=O)[C@H](CC(C)C)NC(C)=O [SR-372, calpain inhibitor I] (Ac-Leu-Leu-[Nle]-aldehyde) |  | 3.5 | > 3 fold | greater than 100 |  |  |  |  |  |  |  |  |
| CCCC[C@@H](C=O)NC(=O)[C@H](CC(C)C)NC(=O)OCc1ccccc1 [SR-914, calpeptin] |  | 7.1 | higher than 7.1 fold | greater than 100 | 0.174 µM and 0.163 µM | further confirmed | 0.0109 ± 0.00078 | > 20 | ~8 | 0.0772 ± 0.00469 | 0.00378 | 10.4 |
